The record followed here is patent US20220324865A1 (Bayer Aktiengesellschaft, priority 2018, published 2022).

Molecules are shown by their SMILES.

The target of the assay is T1, human EP3 receptor (Homo sapiens, UniProt P43115).
T1 construct: expressed in transfected cells; host or cells: CHO K1 (Chinese Hamster Ovary), stably co-transfected with Galpha16 and mitochondrial clytin
T1 sequence (P43115 1-390): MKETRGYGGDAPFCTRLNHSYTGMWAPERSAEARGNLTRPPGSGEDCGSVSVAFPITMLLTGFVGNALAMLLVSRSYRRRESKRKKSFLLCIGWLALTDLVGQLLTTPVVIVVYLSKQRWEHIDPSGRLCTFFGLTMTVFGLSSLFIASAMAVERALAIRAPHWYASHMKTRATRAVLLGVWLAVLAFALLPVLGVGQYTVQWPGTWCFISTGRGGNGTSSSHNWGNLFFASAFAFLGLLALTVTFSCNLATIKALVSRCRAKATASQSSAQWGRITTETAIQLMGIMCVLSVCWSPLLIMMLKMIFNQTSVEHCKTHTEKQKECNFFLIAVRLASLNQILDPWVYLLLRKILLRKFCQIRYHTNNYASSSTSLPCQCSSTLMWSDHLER
The assay can be described thus: Cellular in vitro assay for determining EP3 receptor activity (human EP3 cell line, sulprostone-stimulated calcium luminescence). The format is cell-based. The note with it: CHO cells expressing human EP3 and mitochondrial Clytin; antagonist mode, sulprostone at EC50; read-out: EP3 CHO mtCLY ANTAG IC50. The method in brief: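 CHO K1 cells stably expressing human EP3 with Gα16 and mitochondrial Clytin, loaded overnight with coelenterazine. Compounds added 10 min before sulprostone at its EC50; antagonism read immediately as reduced calcium-driven luminescence, quadruplicate points.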
A word on the IC50: it is the concentration that inhibits the measured activity by half. Regarding `Cc1[nH]c2ccc(CNC(=O)c3nn4cc(-c5cnc6cccc(C)c6c5)[nH]c(=O)c4c3C(C)C)cc2c1C` [Example 4-10, N-[(2,3-Dimethyl-1H-indol-5-yl)methyl]-6-(5-methylquinolin-3-yl)-4-oxo-3-(propan-2-yl)-4,5-dihydropyrazolo[1,5-a]pyrazine-2-carboxamide], the concentration for half-maximal inhibition (IC50) worked out at 2 nM.

Turning to `Cc1cccc2ncc(-c3cn4nc(C(=O)NC(C)c5ccc(F)cc5)c(C(C)C)c4c(=O)[nH]3)cc12` (stereo not drawn) [Example 4-11, N-[1-(4-Fluorophenyl)ethyl]-3-isopropyl-6-(5-methyl-3-quinolyl)-4-oxo-5H-pyrazolo[1,5-a]pyrazine-2-carboxamide], the 50% inhibitory concentration (IC50) is 0.735 nM.

With `Cc1cccc2ncc(-c3cn4nc(C(=O)NC5CCS(=O)(=O)C5)c(C(C)C)c4c(=O)[nH]3)cc12` (stereo not drawn) [Example 4-12, N-(1,1-Dioxothiolan-3-yl)-3-isopropyl-6-(5-methyl-3-quinolyl)-4-oxo-5H-pyrazolo[1,5-a]pyrazine-2-carboxamide], the IC50 stood at 1.65 nM.

For `CCn1ccc(C(C)NC(=O)c2nn3cc(-c4cnc5cccc(C)c5c4)[nH]c(=O)c3c2C(C)C)n1` (stereo not drawn) [Example 4-13, N-[1-(1-Ethylpyrazol-3-yl)ethyl]-3-isopropyl-6-(5-methyl-3-quinolyl)-4-oxo-5H-pyrazolo[1,5-a]pyrazine-2-carboxamide], the concentration for half-maximal inhibition (IC50) stood at 1.45 nM.

Take `Cc1cccc2ncc(-c3cn4nc(C(=O)NCc5cc[nH]n5)c(C(C)C)c4c(=O)[nH]3)cc12` [Example 4-14, 6-(5-Methylquinolin-3-yl)-4-oxo-3-(propan-2-yl)-N-[(1H-pyrazol-3-yl)methyl]-4,5-dihydropyrazolo[1,5-a]pyrazine-2-carboxamide]: the IC50 turned out to be 2.5 nM.

With `Cc1cccc2ncc(-c3cn4nc(C(=O)Nc5ccnn5C(C)C)c(C(C)C)c4c(=O)[nH]3)cc12` [Example 4-15, 6-(5-Methylquinolin-3-yl)-4-oxo-3-(propan-2-yl)-N-[1-(propan-2-yl)-1H-pyrazol-5-yl]-4,5-dihydropyrazolo[1,5-a]pyrazine-2-carboxamide], the IC50 amounted to 2.9 nM.

Take `CCn1nccc1CNC(=O)c1nn2cc(-c3cnc4cccc(C)c4c3)[nH]c(=O)c2c1C(C)C` [Example 4-16, N-[(1-Ethyl-1H-pyrazol-5-yl)methyl]-6-(5-methylquinolin-3-yl)-4-oxo-3-(propan-2-yl)-4,5-dihydropyrazolo[1,5-a]pyrazine-2-carboxamide]: the IC50 was 0.5 nM.

`Cc1cccc2ncc(-c3cn4nc(C(=O)NC5(C)CCS(=O)(=O)C5)c(C(C)C)c4c(=O)[nH]3)cc12` (stereo not drawn) [Example 4-17, 3-Isopropyl-N-(3-methyl-1,1-dioxothiolan-3-yl)-6-(5-methyl-3-quinolyl)-4-oxo-5H-pyrazolo[1,5-a]pyrazine-2-carboxamide]: the IC50 turned out to be 2.45 nM.

For `Cc1cccc2ncc(-c3cn4nc(C(=O)NC(C)CC5CC5)c(C(C)C)c4c(=O)[nH]3)cc12` (stereo not drawn) [Example 4-18, N-(1-Cyclopropylpropan-2-yl)-3-isopropyl-6-(5-methylquinolin-3-yl)-4-oxo-4,5-dihydropyrazolo[1,5-a]pyrazine-2-carboxamide], the 50% inhibitory concentration (IC50) amounted to 1.05 nM.

Take `Cc1cccc2ncc(-c3cn4nc(C(=O)Nc5ccnn5C)c(C(C)C)c4c(=O)[nH]3)cc12` [Example 4-19, N-(1-Methyl-1H-pyrazol-5-yl)-6-(5-methylquinolin-3-yl)-4-oxo-3-(propan-2-yl)-4,5-dihydropyrazolo[1,5-a]pyrazine-2-carboxamide]: the IC50 came to 1.75 nM.

As to `CCn1cnnc1CNC(=O)c1nn2cc(-c3cnc4cccc(C)c4c3)[nH]c(=O)c2c1C(C)C` [Example 4-20, N-[(4-Ethyl-4H-1,2,4-triazol-3-yl)methyl]-6-(5-methylquinolin-3-yl)-4-oxo-3-(propan-2-yl)-4,5-dihydropyrazolo[1,5-a]pyrazine-2-carboxamide], the half-inhibitory concentration (IC50) was determined as 2.9 nM.

In the case of `Cc1cccc2ncc(-c3cn4nc(C(=O)NC5CCOC5)c(C(C)C)c4c(=O)[nH]3)cc12` (stereo not drawn) [Example 4-21, 3-Isopropyl-6-(5-methyl-3-quinolyl)-4-oxo-N-(tetrahydrofuran-3-yl)-5H-pyrazolo[1,5-a]pyrazine-2-carboxamide], the IC50 came out at 1.95 nM.

Regarding `Cc1cccc2ncc(-c3cn4nc(C(=O)NCc5ccnn5C)c(C(C)C)c4c(=O)[nH]3)cc12` [Example 4-22, N-[(1-Methyl-1H-pyrazol-5-yl)methyl]-6-(5-methylquinolin-3-yl)-4-oxo-3-(propan-2-yl)-4,5-dihydropyrazolo[1,5-a]pyrazine-2-carboxamide], the IC50 was determined as 0.815 nM.

Consider `CCn1cc(Cl)c(CNC(=O)c2nn3cc(-c4cnc5cccc(C)c5c4)[nH]c(=O)c3c2C(C)C)n1` [Example 4-23, N-[(4-Chloro-1-ethyl-1H-pyrazol-3-yl)methyl]-6-(5-methylquinolin-3-yl)-4-oxo-3-(propan-2-yl)-4,5-dihydropyrazolo[1,5-a]pyrazine-2-carboxamide], for which the IC50 was 1.01 nM.

Turning to `Cc1cccc2ncc(-c3cn4nc(C(=O)Nc5cnn(C)c5)c(C(C)C)c4c(=O)[nH]3)cc12` [Example 4-24, N-(1-Methyl-1H-pyrazol-4-yl)-6-(5-methylquinolin-3-yl)-4-oxo-3-(propan-2-yl)-4,5-dihydropyrazolo[1,5-a]pyrazine-2-carboxamide], the IC50 came out at 1.15 nM.

Take `Cc1cccc2ncc(-c3cn4nc(C(=O)NCc5ccncc5)c(C(C)C)c4c(=O)[nH]3)cc12` [Example 4-25, 6-(5-Methylquinolin-3-yl)-4-oxo-3-(propan-2-yl)-N-[(pyridin-4-yl)methyl]-4,5-dihydropyrazolo[1,5-a]pyrazine-2-carboxamide]: the concentration for half-maximal inhibition (IC50) was 3.25 nM.

As for `Cc1cccc2ncc(-c3cn4nc(C(=O)NCc5ccccn5)c(C(C)C)c4c(=O)[nH]3)cc12` [Example 4-26, 6-(5-Methylquinolin-3-yl)-4-oxo-3-(propan-2-yl)-N-[(pyridin-2-yl)methyl]-4,5-dihydropyrazolo[1,5-a]pyrazine-2-carboxamide], the IC50 stood at 2.75 nM.

As to `Cc1cccc2ncc(-c3cn4nc(C(=O)N[C@H](C)c5ccccc5)c(C(C)C)c4c(=O)[nH]3)cc12` [Example 4-27, 6-(5-Methylquinolin-3-yl)-4-oxo-N-[(1R)-1-phenylethyl]-3-(propan-2-yl)-4,5-dihydropyrazolo[1,5-a]pyrazine-2-carboxamide], the IC50 came to 1.2 nM.

As to `Cc1cccc2ncc(-c3cn4nc(C(=O)N[C@@H](C)c5cnccn5)c(C(C)C)c4c(=O)[nH]3)cc12` [Example 4-28, 6-(5-Methylquinolin-3-yl)-4-oxo-3-(propan-2-yl)-N-[(7S)-1-(pyrazin-2-yl)ethyl]-4,5-dihydropyrazolo[1,5-a]pyrazine-2-carboxamide], the IC50 worked out at 2.15 nM.

Regarding `Cc1cccc2ncc(-c3cn4nc(C(=O)Nc5cccc6ncccc56)c(C(C)C)c4c(=O)[nH]3)cc12` [Example 4-29, 6-(5-Methylquinolin-3-yl)-4-oxo-3-(propan-2-yl)-N-(quinolin-5-yl)-4,5-dihydropyrazolo[1,5-a]pyrazine-2-carboxamide], the IC50 came out at 1.6 nM.

In the case of `Cc1cccc2ncc(-c3cn4nc(C(=O)NCC(C)Cn5cccn5)c(C(C)C)c4c(=O)[nH]3)cc12` (stereo not drawn) [Example 4-30, 3-Isopropyl-N-[2-methyl-3-(1H-pyrazol-1-yl)propyl]-6-(5-methylquinolin-3-yl)-4-oxo-4,5-dihydropyrazolo[1,5-a]pyrazine-2-carboxamide], the IC50 is 2.7 nM.

As for `Cc1cccc2ncc(-c3cn4nc(C(=O)NCC(N)=O)c(C(C)C)c4c(=O)[nH]3)cc12` [Example 4-31, N-(2-Amino-2-oxoethyl)-6-(5-methylquinolin-3-yl)-4-oxo-3-(propan-2-yl)-4,5-dihydropyrazolo[1,5-a]pyrazine-2-carboxamide], the IC50 was 7.4 nM.

On to `Cc1cccc2ncc(-c3cn4nc(C(=O)N[C@H]5CC[C@H](O)CC5)c(C(C)C)c4c(=O)[nH]3)cc12` [Example 4-32, N-(trans-4-Hydroxycyclohexyl)-3-isopropyl-6-(5-methylquinolin-3-yl)-4-oxo-4,5-dihydropyrazolo[1,5-a]pyrazine-2-carboxamide], for which the IC50 was 6.5 nM.

Consider `Cc1cccc2ncc(-c3cn4nc(C(=O)NCC(C)(C)C)c(C(C)C)c4c(=O)[nH]3)cc12` [Example 4-33, N-(2,2-Dimethylpropyl)-6-(5-methylquinolin-3-yl)-4-oxo-3-(propan-2-yl)-4,5-dihydropyrazolo[1,5-a]pyrazine-2-carboxamide], for which the IC50 is 1.9 nM.

Regarding `CCn1nccc1C(C)NC(=O)c1nn2cc(-c3cnc4cccc(C)c4c3)[nH]c(=O)c2c1C(C)C` (stereo not drawn) [Example 4-34, N-[1-(1-Ethyl-1H-pyrazol-5-yl)ethyl]-3-isopropyl-6-(5-methylquinolin-3-yl)-4-oxo-4,5-dihydropyrazolo[1,5-a]pyrazine-2-carboxamide], the IC50 came out at 1.09 nM.

Consider `Cc1cccc2ncc(-c3cn4nc(C(=O)NCCCS(C)(=O)=O)c(C(C)C)c4c(=O)[nH]3)cc12` [Example 4-35, N-[3-(Methansulfonyl)propyl]-6-(5-methylquinolin-3-yl)-4-oxo-3-(propan-2-yl)-4,5-dihydropyrazolo[1,5-a]pyrazine-2-carboxamide], for which the IC50 came to 1.9 nM.

Regarding `CCn1cc(CNC(=O)c2nn3cc(-c4cnc5cccc(C)c5c4)[nH]c(=O)c3c2C(C)C)c(C)n1` [Example 4-36, N-[(1-Ethyl-3-methyl-1H-pyrazol-4-yl)methyl]-6-(5-methylquinolin-3-yl)-4-oxo-3-(propan-2-yl)-4,5-dihydropyrazolo[1,5-a]pyrazine-2-carboxamide], the IC50 amounted to 0.785 nM.
